One compound from patent US12594258B2, “Inhibitors of MHC-I Nef downmodulation for treating HIV” (priority 2019, dated 2026) can be followed below.

For data set [1], the system named is lysosome neutralization in primary CD4+ T cells. Briefly: Lysotracker Red flow cytometry assay in primary CD4+ T cells. It is filed as cell-based, human. Here is the method:
Cells were treated with plecomacrolides at a density of 1×10^6 cells/mL for 24 hours, then treated with 100 nM LysoTracker Red DND-99 (Fisher, L7528) in PBS at a density of 1×10^6 cells/mL for 1 hour at 37° C., washed twice in PBS, and fixed in 2% PFA before flow cytometric analysis on a BioRad Ze5 flow cytometer.
Lysotracker Flow Cytometry Assay. Cells were treated with plecomacrolides at a density of 1×10^6 cells per milliliter for 24 h, and then treated with 100 nM LysoTracker Red DND-99 in phosphate-buffered saline (PBS) at a density of 1×10^6 cells per milliliter for 1 h at 37° C., washed twice in PBS, and fixed in 2% paraformaldehyde (PFA) before flow cytometric analysis on a flow cytometer.

The subject of data set [2] is HIV-infected primary CD4+ T cells. Briefly: Flow cytometric CTL killing assay. It counts as cell-based, human. The text has this:
CTL clones were isolated by limiting dilution from HIV-1- infected individuals. […] The CTL clones were maintained in culture with periodic re-stimulation as previously described except for the following changes; CTL clones were stimulated with anti-CD3 clone 12F6 (NIH AIDS Reagent Program) and cultured with IL-2 (NIH AIDS Reagent Program, Hoffman-La Roche). Peripheral blood mononuclear feeder cells were isolated from leukopaks (New York Blood Center) and X-irradiated with […] in R10 medium. Irradiations were performed using a Kimtron IC 225(Kimtron Medical) at a dose rate of approximately 2 Gy/min in the University of Michigan Comprehensive Cancer Center Experimental Irradiation Core (Ann Arbor, Mich.). CTL clones 115B15 and 161JXA14 both recognize HIV gag amino acids 77-85; SLYNTVATL presented by MHC-I HLA-A2 (71).
CTL elimination assays were performed as previously described with the following modifications: 72 hours post-infection primary CD4^+ T cells were stained with CellTracker Green (Fisher, c7025) according to manufacturer's protocol and treated with 0.5 nM CMA or solvent control for 24 hours. 50,000 target cells were used per condition, and following the 4 hours of co-culture, the cells were stained with DAPI as a viability dye in addition to anti-PLAP and BB7.2 antibodies. […]
(Flow cytometry measures light scatter and fluorescence of single cells or particles in a stream.)

The nature of data set [3]: Mouse in vivo tolerability. Also on record: species or system mice. As to the method: FIG. 8A is a schematic representation of experiments for FIG. 8B-D. Five mice per group received injections of CMA every 2 days for 10 doses. Blood plasma and lymph nodes were harvested from mice sacrificed 2 hours after the final injection.
Mouse in vivo Assays. To further examine the tolerability of CMA, preliminary studies were performed in two groups of mice injected with different doses of CMA every other day for 18 days (FIG. 8A). […] In a separate experiment, plasma harvested from treated mice inhibited Nef in our in vitro assay (FIG. 8F). Taken together, these promising preliminary studies provide evidence that CMA is both efficacious and tolerable in vivo.

The subject of data set [4] is HIV Nef.

A word on the EC50: it is the concentration that produces a half-maximal response. A high value points to weaker potency.

In the case of `C/C=C/[C@H]1O[C@@](O)([C@@H](C)[C@H](O)[C@H](C)[C@H]2OC(=O)/C(OC)=C/C(C)=C/[C@@H](C)[C@@H](O)[C@@H](CC)[C@@H](O)[C@H](C)C/C(C)=C/C=C/[C@@H]2OC)C[C@@H](O[C@H]2C[C@@H](O)[C@H](OC(N)=O)[C@@H](C)O2)[C@@H]1C` [CMA, concanamycin A], the “difference between EC50 for lysosome neutralization and EC50 for Nef inhibition” value in data set [1] was found to be 27 fold. Moreover, the response in data set [1] (24 hours) was half-maximal at 1.9 nM (EC50). The “CTL-mediated elimination of PLAP+ cells infected with Nef-competent virus” value in data set [2] (0.5 nM, 24 hours) is “efficiently eliminated by CTLs”. The “clearance of SL9 peptide-pulsed target cells by anti-HIV CTLs” value in data set [2] (in the presence of 0.5 nM) was “No change in the clearance”. In addition, the “toxicity based on behavior, fur and weight loss” value in data set [3] (two doses, injected every other day for 18 days) is recorded as “Neither dose showed toxicity”. In data set [3] (weighed prior to each dose), the body mass entry was “no loss in body mass and no dose effect”. Besides, in data set [4] (2.5 nM and 0.5 nM), the “restoration of CD4 to the cell surface of Nef-expressing cells” value was “neither dose of CMA restored CD4” and the “restoration of cell-surface MHC-I in Nef-expressing cells” value is “restored equally in both conditions”. In addition, the “Nef-mediated degradation of HLA-A2 and CD4 (Western blot)” value in data set [4] (high dose (2.5 nM)) was “inhibited Nef-mediated degradation of both HLA-A2 and CD4”. Besides, in data set [4] (low dose (0.5 nM)), the “degradation of CD4 (Western blot)” value was “did not prevent degradation of CD4” and the “degradation of MHC-I in Nef-expressing cells (Western blot)” value was “MHC-I was not degraded in Nef-expressing cells”.
